Test results: a melting point compilation (Tetko et al.; mined from patent text by program, amines drawn as free bases though some values may be those of a salt)

First: Cc1cn(-c2ccc3nnc4c(C)nc(C5CCCCC5)n4c3c2)c(C2CCCCC2)n1
Second: C(=C\C1CCCCC1)/c1nc2ccccc2n1-c1ccccn1
The melting point of the first is higher: 224 to 227 °C for the first, 105 to 106 °C for the second.

First: OC1CSC(Oc2ccc(-c3ccc(OC(F)(F)F)cc3)nc2)C(O)C1O (stereo unspecified)
Second: O=S1(=O)CCN2CCCC(c3ccc(Oc4ccc(C(F)(F)F)cc4)cc3)C2=N1 (stereo unspecified)
The melting point of the first is lower: 184 to 186 °C for the first, 191 to 193 °C for the second.

Compared with `CC(=O)c1cc(-c2c(Cl)ccc(C(=O)O)c2Cl)n(C)n1`, `CCn1cc(C(=O)O)c(=O)c2ccc(N)cc21` is higher in melting point: 200 to 203 °C for the first, 304 to 307 °C for the second.

First: C=CC(=O)N1C(C)(C)CC(OC(=O)C(C#N)(Cc2cc(C(C)(C)C)c(O)c(C(C)(C)C)c2)Cc2cc(C(C)(C)C)c(O)c(C(C)(C)C)c2)CC1(C)C
Second: CCCCCCCOc1cc2c(cc1C=Cc1ccc(C(=O)O)cc1)C(C)(C)CCC2(C)C
The melting point of the first is higher: 174 °C for the first, 153 to 155 °C for the second.

First: Nc1nc(O)c2c(CCCc3ccc(C(=O)N[C@@H](CCC(=O)O)C(=O)O)cc3)cnc-2[nH]1
Second: CCCCOc1cc(CCC(=O)O)ccc1CCCc1ccc(OCC)c(OC)c1
The melting point of the first is higher: 190 to 193 °C for the first, 66 °C for the second.

First: CCC1CCc2nc3c(c(N)c2C1=O)c1ccccc1n3C (stereo unspecified)
Second: Cn1c2ccccc2c2cc(C=O)c3ccccc3c21
The melting point of the first is lower: 129 to 131 °C for the first, 188 to 192 °C for the second.

Compared with `CCNC(=S)Nc1cccc(C(=O)OCC)c1NCc1ccc(-c2ccccc2C#N)cc1`, `COc1ccc(C(=O)Nc2ccccc2)cc1NS(=O)(=O)Cc1ccccc1` is higher in melting point: 108 to 110 °C for the first, 216 °C for the second.

Compared with `COc1cc(C=O)ccc1OCCCCl`, `COc1ccc(-c2ccccc2C)cc1C=O` is higher in melting point: 53 to 55 °C for the first, 66 to 69 °C for the second.

First: Cc1n[nH]c2ccc(-c3ccc4nnn(Cc5ccc6ncccc6c5)c4n3)cc12
Second: CCOC(=O)c1sc(Oc2ccc(OCc3ccc4ccccc4n3)cc2)c2c1CCc1cnn(C)c1-2
The melting point of the first is lower: 246 to 249 °C for the first, 269 to 270 °C for the second.

Compared with `C[C@H](C#Cc1ccc(Cc2ccc3ccccc3c2)s1)N(O)C(N)=O`, `CCn1cc(CN(C(=O)C2CCc3ccccc32)c2ccc(C(C)C)cc2)cn1` (stereo unspecified) is lower in melting point: 134 to 135 °C for the first, 83 to 84 °C for the second.

First: Nc1nc(NCCc2cccc(O)c2)nc2nc(-c3ccco3)nn12
Second: O=c1ccocc1OCc1ccccc1
The melting point of the first is higher: 190 to 193 °C for the first, 82 to 85 °C for the second.

First: O=C(O)c1ccc([C@H]2CC[C@H](C3CCC4(CC3)OCCO4)CC2)cc1F
Second: CCOc1ccc(-c2ccc3c(c2)C=C(C(=O)O)CCO3)cc1
The melting point of the first is lower: 228 °C for the first, 269 to 271 °C for the second.

First: CC1CC2(OC3CC4C5CCC6CC(O)CCC6(C)C5C(=O)CC4(C)C3C2(C)O)OC1(C)C (stereo unspecified)
Second: CC12CCC(C1)C(C)(C)C2(S)CC#N (stereo unspecified)
The melting point of the first is higher: 206 to 208 °C for the first, 170 to 171 °C for the second.

First: CCCCCCC1(C(=O)NCCC)c2ccccc2Oc2ccccc21
Second: CN(C)CCCNC(=O)c1ccc(-c2nnc(CSCCCCOc3ccccc3)o2)cc1
The melting point of the first is lower: 76 to 77.5 °C for the first, 87 to 93 °C for the second.

First: Cc1cc(-c2cc(F)c(F)cc2-c2ccc(S(C)(=O)=O)cc2)ccc1F
Second: CCOC(=O)c1cn(-c2ccc(F)cc2F)c2c(F)c(F)c(F)c(C)c2c1=O
The melting point of the first is higher: 167 to 168 °C for the first, 152 to 154 °C for the second.

First: COc1ccc(Cn2c(=O)c(C(=O)NC3CCCCC3)c(O)c3cccnc32)cc1
Second: Cc1c(F)c(F)c(C(=O)NC2CCCCCC2)c(F)c1F
The melting point of the first is lower: 149 °C for the first, 164 to 165 °C for the second.

Compared with `C=CCN1CCN(C2=NC3(C=CC(=O)C=C3)C(Sc3ccccc3)=C2)CC1`, `O=C1NC(N2CCCCCC2)=N/C1=C\c1c[nH]c2ncc(-c3ccccc3)cc12` is higher in melting point: 175 °C for the first, 302 °C for the second.

First: CC1=NC(C)(COc2ccc(NC(=O)c3cc(F)cc(N4CCOCC4)c3)c3ccccc23)CO1 (stereo unspecified)
Second: CCc1nc2c(cnn2CC)c(NC2CCOCC2)c1CNC(=O)c1cccc(C(=O)NCc2ccc(C)c(-c3cccc(CN4CCN(C)CC4)c3)c2)c1
The melting point of the first is higher: 203 to 206 °C for the first, 121 to 124 °C for the second.

First: CCOC(=O)C(C)c1ccc(C(=O)c2ccc(Cl)cc2)n1C (stereo unspecified)
Second: CC(Oc1ncn(-c2ccc(Cl)cc2)n1)C(=O)O (stereo unspecified)
The melting point of the first is lower: 67 to 68 °C for the first, 196 to 198 °C for the second.

First: CCOCc1nc2c(N)nc3ccccc3c2n1CC(C)(C)OCCS(C)(=O)=O
Second: COC(=O)COc1cccc2c(CCOS(C)(=O)=O)coc12
The melting point of the first is higher: 183 to 185 °C for the first, 111 °C for the second.

First: CC(c1ccc(Cl)cc1)N1CCC2(CC1)Cc1ccccc1O2 (stereo unspecified)
Second: Cc1cccc2c(-c3ccc(Cl)cc3Cl)onc12
The melting point of the first is lower: 64 to 66 °C for the first, 94 to 95 °C for the second.

First: Nc1ncnc2c1ncn2Cc1nc2cccc(Cl)c2c(=O)n1-c1ccccc1F
Second: COCc1cc(-c2nnc3c4ccccc4c(OCc4ncnn4C)nn23)no1
The melting point of the first is higher: 296 °C for the first, 206 to 208 °C for the second.

Compared with `NC(=O)N(O)Cc1sccc1Br`, `Cc1oc(C=Cc2ccccc2Cl)nc1C(=O)O` is higher in melting point: 138 to 140 °C for the first, 223 to 224 °C for the second.

First: CCCCCCCCC1COC(c2ccc(O)cc2)OC1 (stereo unspecified)
Second: Oc1ccc(OCCCCCCBr)cc1
The melting point of the first is higher: 96 to 97 °C for the first, 43 to 45 °C for the second.

First: CCC(Cc1ccc(S(=O)(=O)c2ccc(S(N)(=O)=O)s2)cc1)N(C)C (stereo unspecified)
Second: CCOC(=O)Cc1ccc(NC(=O)C(COC2CCCCO2)NS(=O)(=O)c2ccc(Cl)c([N+](=O)[O-])c2)cc1 (racemic)
The melting point of the first is higher: 169 to 172 °C for the first, 108 to 111 °C for the second.

First: COC(=S)OC(C(=O)O)c1ccccc1 (stereo unspecified)
Second: O=C(Nc1c[nH]nc1C(=O)NCC(O)Cc1ccccc1)c1ccccn1 (stereo unspecified)
The melting point of the first is lower: 86 to 87 °C for the first, 180 to 181 °C for the second.

First: Cc1cnc(-c2cc(=S)ss2)cn1
Second: CCOC(=O)C(=CNc1cnsn1)C(=O)c1cc(F)c(F)cc1F
The melting point of the first is higher: 192 °C for the first, 117 to 118 °C for the second.

First: O=C(c1ccc(OCC2CO2)cc1)c1cccc2[nH]ccc12 (stereo unspecified)
Second: CN(C)CCCOc1cccc(N(C(=O)c2ccccc2)c2ccccc2)c1
The melting point of the first is higher: 96 °C for the first, 77 to 81 °C for the second.

Compared with `CCC(C#N)c1cccc(C(=O)c2cc3cc(C(=O)OC)sc3s2)c1` (stereo unspecified), `COc1ccc(-c2cccc(C(=O)O)c2)c2c1OC(C)(C)C2` is higher in melting point: 130 °C for the first, 220 to 225 °C for the second.

First: CNC(=O)Oc1ccc(NC(=O)C(C)Cl)c(C)c1 (stereo unspecified)
Second: COC(=O)c1cc(C)nc(Nc2ccc(C(C)C)cc2Br)n1
The melting point of the first is higher: 167 to 170 °C for the first, 75 to 76 °C for the second.

Compared with `CCCCOc1ccc2c(c1)C(N(CC(=O)NC(=N)N)S(C)(=O)=O)CC(C)(C)O2` (stereo unspecified), `CCOC(=O)C1C(=O)C=C(OCC)CC1c1ccc(C)cc1` (stereo unspecified) is lower in melting point: 112 to 114 °C for the first, 75 to 77 °C for the second.

Compared with `COc1cncnc1N1CCN(C(=O)OC(C)(C)C)CC1C` (stereo unspecified), `CN1Cc2c(C(=O)OC(C)(C)C)ncn2-c2cccc(C#N)c2C1=O` is higher in melting point: 70 to 72 °C for the first, 213 to 215 °C for the second.

First: CCCCCCCNC(=O)Nc1ccccc1C(=O)NC1CCN(CCSc2nc(-c3ccccc3)c(-c3ccccc3)[nH]2)CC1
Second: O=C(O)COc1ccc2c(c1)Cc1sc(S(=O)(=O)CCC(c3ccccc3)c3ccccc3)nc1-2
The melting point of the first is lower: 160 to 161 °C for the first, 172 to 174 °C for the second.

First: CCOC(=O)CN(CC(=O)OCC)Cc1ccc2cc(N)c3ccc(CN(CC(=O)OCC)CC(=O)OCC)nc3c2n1
Second: COC(=O)C1=C(O)c2cc(OC)ccc2S(=O)(=O)N1
The melting point of the first is lower: 137 to 139 °C for the first, 183 °C for the second.

Compared with `CC(C)c1cccc(C(C)C)c1NC(=O)CSCC(=O)O`, `Cc1cc(C)cc(-c2ccc3c(c2)CC[C@H]2N(C)C(=O)CC[C@]32C)c1` is lower in melting point: 168 to 169 °C for the first, 129 to 130 °C for the second.

Molecule `ClCc1c(Cl)nnc(Cl)c1Cl` has a melting point of 102 to 104 °C.
